Source: patent US11369565B2, “Amino-pyrimidine skeletal muscle modulators” (Cytokinetics, Inc., priority 2010, dated 2022)

What follows are molecules tested on rabbit skeletal myofibrils (approximately 90% fast fibers) (assay: Activation of fast skeletal myofibrils (PUMA coupled-enzyme ATPase assay at pCa25)). Settings: concentration at which the compound increased the enzymatic activity by 40%; calcium at pCa25; PM12 buffer pH 6.8.
Format: biochemical
In short: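 In pH 6.8 PM12 buffer (12 mM Pipes, 2 mM MgCl2, 1 mM DTT), ADP from myosin regenerated via pyruvate kinase/lactate dehydrogenase, with absorbance change at 340 nm from NADH oxidation as read-out. Calcium set at pCa25; Triton-washed rabbit skeletal myofibrils (about 90% fast fibres) used.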
`CC(C)(CNc1ncc2c(n1)CCNC2)c1ccc(F)cc1` [[2-(4-fluorophenyl)-2-methylpropyl]-5,6,7,8-tetrahydropyridino[4,3-d]pyrimidin-2-ylamine] was tested, and the “Mean AC1.4” value was “D (D=>20 uM)”. In the case of `COCCNc1nc(NC[C@]2(c3ncccc3F)C[C@H](F)C2)ncc1-c1ccccc1` [[2-({[3-fluoro-1-(3-fluoro(2-pyridyl))cyclobutyl]methyl}amino-5-phenylpyrimidin-4-yl](2-methoxyethyl)amine], the “Mean AC1.4” value is reported as “D (D=>20 uM)”. For `CN(C)c1nc(NC[C@]2(c3ncccc3F)C[C@H](F)C2)ncc1-c1ccccc1` [[2-({[3-fluoro-1-(3-fluoro(2-pyridyl))cyclobutyl]methyl}amino-5-phenylpyrimidin-4-yl]dimethylamine], the “Mean AC1.4” value was “D (D=>20 uM)”. For `CN(C(=O)c1cnc(NCC2(c3ncccc3F)CCC2)nc1)c1nccs1` [[2-({[(3-fluoro(2-pyridyl))cyclobutyl)]methyl}amino) pyrimidin-5-yl]-N-methyl-N-(1,3-thiazol-2-yl)carboxamide], the “Mean AC1.4” value was “D (D=>20 uM)”. With `Cn1nccc1NC(=O)c1cnc(NCC2(c3ncccc3F)CCC2)nc1` [[2-({[(3-fluoro(2-pyridyl))cyclobutyl]methyl)amino)pyrimidin-5-yl]-N-(1-methylpyrazol-5-yl)carboxamide] the “Mean AC1.4” value was “D (D=>20 uM)”. With `O=C(NCCO)c1cnc(NCC2(c3ncccc3F)CCC2)nc1` [[2-({[(3-fluoro(2-pyridyl))cyclobutyl]methyl}amino)pyrimdin-5-yl]-N-(2-hydroxyethyl)carboxamide] the “Mean AC1.4” value was “D (D=>20 uM)”. `O=C(Nc1ccccc1)c1ccnc(NCC2(c3ncccc3F)CCC2)n1` [[2-({[(3-fluoro(2-pyridyl))cyclobutyl]methyl}amino)pyrimidin-4-yl]-N-benzamide] was tested, and the “Mean AC1.4” value was “D (D=>20 uM)”. `CN(C(=O)c1ccnc(NCC2(c3ncccc3F)CCC2)n1)c1ccccc1` [[2-({[(3-fluoro(2-pyridyl))cyclobutyl]methyl}amino)pyrimidin-4-yl]-N-methyl-N-benzamide] was tested, and the “Mean AC1.4” value was “D (D=>20 uM)”. With `O=C(Nc1nncs1)c1cnc(NCC2(c3ncccc3F)CCC2)nc1` [[2-({[(3-fluoro(2-pyridyl))cyclobutyl]methyl}amino)pyrimidin-5-yl]-N-(1,3,4-thiadiazol-2-yl)carboxamide] the “Mean AC1.4” value was “B (B=1-10 uM)”. For `O=C(Nc1nccs1)c1cnc(NCC2(c3ncccc3F)CCC2)nc1` [[2-({[(3-fluoro(2-pyridyl))cyclobutyl]methyl}amino)pyrimidin-5-yl]-N-(1,3-thiazol-2-yl)carboxamide], the “Mean AC1.4” value was “B (B=1-10 uM)”. With `O=C(Nc1ccccc1F)c1cnc(NCC2(c3ncccc3F)CCC2)nc1` [[2-({[(3-fluoro(2-pyridyl))cyclobutyl]methyl}amino)pyrimidin-5-yl]-N-(2-fluorophenyl)carboxamide] the “Mean AC1.4” value was “D (D=>20 uM)”. In the case of `O=C(Nc1cccc(F)c1)c1cnc(NCC2(c3ncccc3F)CCC2)nc1` [[2-({[(3-fluoro(2-pyridyl))cyclobutyl]methyl}amino)pyrimidin-5-yl]-N-(3-fluorophenyl)carboxamide], the “Mean AC1.4” value is reported as “D (D=>20 uM)”. In the case of `Cc1cc(NC(=O)c2cnc(NCC3(c4ncccc4F)CCC3)nc2)[nH]n1` [[2-({[(3-fluoro(2-pyridyl))cyclobutyl]methyl}amino)pyrimidin-5-yl]-N-(3-methylpyrazol-5-yl)carboxamide], the “Mean AC1.4” value is reported as “D (D=>20 uM)”. `O=C(Nc1cccnc1)c1cnc(NCC2(c3ncccc3F)CCC2)nc1` [[2-({[(3-fluoro(2-pyridyl))cyclobutyl]methyl}amino)pyrimidin-5-yl]-N-(3-pyridyl)carboxamide] was tested, and the “Mean AC1.4” value was “C (C=10-20 uM)”. With `O=C(Nc1ccc(F)cc1)c1cnc(NCC2(c3ncccc3F)CCC2)nc1` [[2-({[(3-fluoro(2-pyridyl))cyclobutyl]methyl}amino)pyrimidin-5-yl]-N-(4-fluorophenyl)carboxamide] the “Mean AC1.4” value was “D (D=>20 uM)”. For `O=C(Nc1ccncc1)c1cnc(NCC2(c3ncccc3F)CCC2)nc1` [[2-({[(3-fluoro(2-pyridyl))cyclobutyl]methyl}amino)pyrimidin-5-yl]-N-(4-pyridyl)carboxamide], the “Mean AC1.4” value was “B (B=1-10 uM)”. With `COc1ccc(NC(=O)c2cnc(NCC3(c4ncccc4F)CCC3)nc2)cn1` [[2-({[(3-fluoro(2-pyridyl))cyclobutyl]methyl}amino)pyrimidin-5-yl]-N-(6-methoxy(3-pyridyl))carboxamide] the “Mean AC1.4” value was “D (D=>20 uM)”. With `CS(=O)(=O)NCCNC(=O)c1cnc(NCC2(c3ncccc3F)CCC2)nc1` [[2-({[(3-fluoro(2-pyridyl))cyclobutyl]methyl}amino)pyrimidin-5-yl]-N-[(methylsulfonyl)amino]ethyl} carboxamide] the “Mean AC1.4” value was “D (D=>20 uM)”. `O=C(Nc1ccccc1)c1cnc(NCC2(c3ncccc3F)CCC2)nc1` [[2-({[(3-fluoro(2-pyridyl))cyclobutyl]methyl}amino)pyrimidin-5-yl]-N-benzamide] was tested, and the “Mean AC1.4” value was “C (C=10-20 uM)”. `O=C(Nc1ccon1)c1cnc(NCC2(c3ncccc3F)CCC2)nc1` [[2-({[(3-fluoro(2-pyridyl))cyclobutyl]methyl}amino)pyrimidin-5-yl]-N-isoxazol-3-ylcarboxamide] was tested, and the “Mean AC1.4” value was “B (B=1-10 uM)”. For `CNC(=O)c1cnc(NCC2(c3ncccc3F)CCC2)nc1` [[2-({[(3-fluoro(2-pyridyl))cyclobutyl]methyl}amino)pyrimidin-5-yl]-N-methylcarboxamide], the “Mean AC1.4” value was “D (D=>20 uM)”. `O=C(Nc1ccn[nH]1)c1cnc(NCC2(c3ncccc3F)CCC2)nc1` [[2-({[(3-fluoro(2-pyridyl))cyclobutyl]methyl}amino)pyrimidin-5-yl]-N-pyrazol-5-ylcarboxamide] was tested, and the “Mean AC1.4” value was “C (C=10-20 uM)”. In the case of `COc1ncc(-c2cnc(NC[C@]3(c4ncccc4F)C[C@H](F)C3)nc2)c(OC)n1` [[5-(2,4-dimethoxypyrimidin-5-yl)pyrimidin-2-yl]{[3-fluoro-1-(3-fluoro(2-pyridyl))cyclobutyl]methyl}amine], the “Mean AC1.4” value is reported as “D (D=>20 uM)”. In the case of `COc1cc(-c2cnc(NC[C@]3(c4ncccc4F)C[C@H](F)C3)nc2)nc(OC)n1` [[5-(2,6-dimethoxypyrimidin-4-yl)pyrimidin-2-yl]{[3-fluoro-1-(3-fluoro(2-pyridyl))cyclobutyl]methyl}amine], the “Mean AC1.4” value is reported as “D (D=>20 uM)”. In the case of `Cc1nc(N)ncc1-c1cnc(NC[C@]2(c3ncccc3F)C[C@H](F)C2)nc1` [[5-(2-amino-4-methylpyrimidin-5-yl)pyrimidin-2-yl]{[3-fluoro-1-(3-fluoro(2-pyridyl))cyclobutyl]methyl}amine], the “Mean AC1.4” value is reported as “C (C=10-20 uM)”. In the case of `Nc1ncc(F)c(-c2cnc(NC[C@]3(c4ncccc4F)C[C@H](F)C3)nc2)n1` [[5-(2-amino-5-fluoropyrimidin-4-yl)pyrimidin-2-yl]{[3-fluoro-1-(3-fluoro(2-pyridyl))cyclobutyl]methyl}amine], the “Mean AC1.4” value is reported as “B (B=1-10 uM)”. In the case of `Cc1cnc(N)nc1-c1cnc(NC[C@]2(c3ncccc3F)C[C@H](F)C2)nc1` [[5-(2-amino-5-methylpyrimidin-4-yl)pyrimidin-2-yl]{[3-fluoro-1-(3-fluoro(2-pyridyl))cyclobutyl]methyl}amine], the “Mean AC1.4” value is reported as “D (D=>20 uM)”. With `Nc1nccc(-c2cnc(NC[C@]3(c4ncccc4F)C[C@H](F)C3)nc2)n1` [[5-(2-aminopyrimidin-4-yl)pyrimidin-2-yl]{[3-fluoro-1-(3-fluoro(2-pyridyl))cyclobutyl]methyl)amine] the “Mean AC1.4” value was “C (C=10-20 uM)”.
